According to patent US20080146987A1, “TREATMENT OF A SKIN CONDITION USING A PIPERINE-BASED COMPOSITION IN CONJUNCTION WITH IRRADIATION” (OREGON HEALTH & SCIENCE UNIVERSITY, priority 2006, published 2008):

System: HRA.HRII-c/+/Skh hairless pigmented mice
Experiment: visual pigmentation score after topical compounds with or without UVB, 13-week protocols
Format: in vivo
Conditions: HRA/Skh-II mice, four or more weeks
Procedure: Male and female inbred HRA.HRII-c/+/Skh hairless pigmented mice, age-matched (8-16 weeks old), were used in the following in vivo experiments for evaluation of pigmentation induced by piperine and/or UVR.
In one experiment, the compounds used included piperine, THP, CHP, and RCHP, each prepared in DMSO at a 50 mg/ml concentration, and applied to the backs of mice (n=4) twice daily on weekdays for 13 weeks, as shown in FIG. 3. As shown, Group A received treatment with compounds only from week 1-13. Group B was treated with compound from week 1-13, with additional UVB irradiation from weeks 5-13. Group F received UVB alone (no topical treatment) for 9 weeks, corresponding to weeks 5-13. Groups C, D and E were treated as Group B from weeks 1-7. All treatments was suspended for 3 weeks (8-10) and re-started as topical treatment with compounds only (Group C), UVB only (Group D), or topical treatment with UVB (Group E) from weeks 11-13.
Pigmentation was assessed visually by an investigator blinded to the treatment that the animals had received using the following scoring system: 0—no pigmentation; 1—first signs of pigmentation (spots); 2—light brown; 3—medium brown; 4—dark brown; 5—black. Scores obtained at the end of each week (Friday) are shown in FIG. 4 (piperine noted as PIP). […]

SMILES: O=C(CCCCc1ccc2c(c1)OCO2)NC1CCCCC1 [RCHP, 5-(3,4-methylenedioxyphenyl)-2,4-pentanoylcyclohexylamine]
- skin pigmentation in vivo after continuous topical application: stimulate the development of even skin pigmentation
